# Reference: publication PMC11480511 (Scientific Reports, 2024)
# Columns and labels:
# IGROV1 = assay: NCI single-dose growth inhibition screen; assay type: cell-based; details: Homo sapiens, IGROV-1; Ovarian Cancer IGROV1; single dose 10^−5 M
# LOX IMVI = assay: NCI single-dose growth inhibition screen; assay type: cell-based, human; details: Melanoma LOX IMVI, single dose 10^−5 M; for inhibition at 10 µM: Homo sapiens, LOX IMVI
# RXF 393 = assay: NCI single-dose growth inhibition screen; assay type: cell-based; details: Homo sapiens; Renal Cancer RXF 393; single dose 10^−5 M
# NCI-H322M = assay: NCI single-dose growth inhibition screen; assay type: cell-based; details: Homo sapiens; Non-Small Cell Lung Cancer NCI-H322M; single dose 10^−5 M
# RPMI-8226 = assay: NCI single-dose growth inhibition screen; assay type: cell-based; details: Homo sapiens; Leukemia RPMI-8226; single dose 10^−5 M
# MOLT-4 = assay: NCI single-dose growth inhibition screen; assay type: cell-based; details: Homo sapiens; Leukemia MOLT-4; single dose 10^−5 M
# T-47D = assay: NCI single-dose growth inhibition screen; assay type: cell-based; details: Homo sapiens, T47D; Breast Cancer T-47D; single dose 10^−5 M
# HOP-92 = assay: NCI single-dose growth inhibition screen; assay type: cell-based; details: Homo sapiens; Non-Small Cell Lung Cancer HOP-92; single dose 10^−5 M
# ACHN = assay: NCI single-dose growth inhibition screen; assay type: cell-based; details: Homo sapiens; Renal Cancer ACHN; single dose 10^−5 M
# E. coli ATCC 25,922 = assay: Antibacterial screening, agar cup diffusion method; assay type: cell-based; details: Escherichia coli, ATCC25, Gram –ve strain; read-out: Minimum inhibitory concentrations (MIC, µM) E. coli ATCC 25,922
# MCF7 = assay: NCI single-dose growth inhibition screen; assay type: cell-based, human; details: Homo sapiens, MCF7, Breast Cancer MCF7; single dose 10^−5 M
# MALME-3 M = assay: NCI single-dose growth inhibition screen; assay type: cell-based; details: Homo sapiens; Melanoma MALME-3 M; single dose 10^−5 M
# HOP-62 = assay: NCI single-dose growth inhibition screen; assay type: cell-based; details: Homo sapiens; Non-Small Cell Lung Cancer HOP-62; single dose 10^−5 M
# HL-60(TB) = assay: NCI single-dose growth inhibition screen; assay type: cell-based; details: Homo sapiens; Leukemia HL-60(TB); single dose 10^−5 M
# NCI-H522 = assay: NCI single-dose growth inhibition screen; assay type: cell-based; details: Homo sapiens; Non-Small Cell Lung Cancer NCI-H522; single dose 10^−5 M
# MDA-MB-468 = assay: NCI single-dose growth inhibition screen; assay type: cell-based; details: Homo sapiens; Breast Cancer MDA-MB-468; single dose 10^−5 M
# SN12C = assay: NCI single-dose growth inhibition screen; assay type: cell-based; details: Homo sapiens; Renal Cancer SN12C; single dose 10^−5 M
# SNB-75 = assay: NCI single-dose growth inhibition screen; assay type: cell-based, human; details: Homo sapiens, SNB-75, CNS Cancer SNB-75; single dose 10^−5 M
# HS 578T = assay: NCI single-dose growth inhibition screen; assay type: cell-based; details: Homo sapiens; Breast Cancer HS 578T; single dose 10^−5 M
# TK-10 = assay: NCI single-dose growth inhibition screen; assay type: cell-based; details: Homo sapiens; Renal Cancer TK-10; single dose 10^−5 M
# UACC-62 = assay: NCI single-dose growth inhibition screen; assay type: cell-based; details: Homo sapiens; Melanoma UACC-62; single dose 10^−5 M
# [1] = tested on: P. aeruginosa ATCC 27,853; assay: Antibacterial screening, agar cup diffusion method; assay type: cell-based; details: Gram –ve strain; for MIC: Pseudomonas aeruginosa, ATCC27, read-out: Minimum inhibitory concentrations (MIC, µM) P. aeruginosa ATCC 27,853
# PC-3 = assay: NCI single-dose growth inhibition screen; assay type: cell-based; details: Homo sapiens; Prostate Cancer PC-3; single dose 10^−5 M
# OVCAR-8 = assay: NCI single-dose growth inhibition screen; assay type: cell-based; details: Homo sapiens; Ovarian Cancer OVCAR-8; single dose 10^−5 M
# NCI-H23 = assay: NCI single-dose growth inhibition screen; assay type: cell-based; details: Homo sapiens; Non-Small Cell Lung Cancer NCI-H23; single dose 10^−5 M
# BT-549 = assay: NCI single-dose growth inhibition screen; assay type: cell-based; details: Homo sapiens; Breast Cancer BT-549; single dose 10^−5 M
# SK-MEL-5 = assay: NCI single-dose growth inhibition screen; assay type: cell-based, human; details: Homo sapiens, SK-MEL-5, Melanoma SK-MEL-5; single dose 10^−5 M
# SK-MEL-2 = assay: NCI single-dose growth inhibition screen; assay type: cell-based; details: Homo sapiens; Melanoma SK-MEL-2; single dose 10^−5 M
# UACC-257 = assay: NCI single-dose growth inhibition screen; assay type: cell-based; details: Homo sapiens; Melanoma UACC-257; single dose 10^−5 M
# NCI-H460 = assay: NCI single-dose growth inhibition screen; assay type: cell-based; details: Homo sapiens; Non-Small Cell Lung Cancer NCI-H460; single dose 10^−5 M
# HCT-116 = assay: NCI single-dose growth inhibition screen; assay type: cell-based; details: Homo sapiens; Colon Cancer HCT-116; single dose 10^−5 M
# [2] = tested on: A498 renal cancer cell line; assay: cells; details: Homo sapiens
# human melanoma LOX IMVI = assay: cells
compound,measurement,setting,value
COc1cc(/C=C2\SC(=O)N(CCCC(=O)N3CCN(c4cc5c(cc4F)c(=O)c(C(=O)O)cn5C4CC4)CC3)C2=O)cc(OC)c1OC [3 g],inhibition at 10 µM,IGROV1,< 0%
same,inhibition at 10 µM,LOX IMVI,1.8%
same,inhibition at 10 µM,RXF 393,< 0%
same,inhibition at 10 µM,NCI-H322M,5.1%
same,inhibition at 10 µM,RPMI-8226,< 0%
same,inhibition at 10 µM,MOLT-4,< 0%
same,inhibition at 10 µM,T-47D,< 0%
same,inhibition at 10 µM,HOP-92,< 0%
same,inhibition at 10 µM,ACHN,< 0%
same,MIC,"E. coli ATCC 25,922",0.25 µM
same,inhibition at 10 µM,MCF7,3.6%
same,inhibition at 10 µM,MALME-3 M,< 0%
same,inhibition at 10 µM,HOP-62,< 0%
same,inhibition at 10 µM,HL-60(TB),< 0%
same,inhibition at 10 µM,NCI-H522,3.3%
same,inhibition at 10 µM,MDA-MB-468,< 0%
same,inhibition at 10 µM,SN12C,0.6%
same,inhibition at 10 µM,SNB-75,5.9%
same,inhibition at 10 µM,HS 578T,3.2%
same,inhibition at 10 µM,TK-10,< 0%
same,inhibition at 10 µM,UACC-62,3.7%
same,melting point,,252 °C
same,MIC,[1],> 20 µM
same,inhibition at 10 µM,PC-3,< 0%
same,inhibition at 10 µM,OVCAR-8,1.9%
same,inhibition at 10 µM,NCI-H23,2.6%
same,inhibition at 10 µM,BT-549,< 0%
same,inhibition at 10 µM,SK-MEL-5,< 0%
same,inhibition at 10 µM,SK-MEL-2,< 0%
same,inhibition at 10 µM,UACC-257,6.7%
same,inhibition at 10 µM,NCI-H460,< 0%
same,inhibition at 10 µM,HCT-116,< 0%
O=C(O)c1cn(C2CC2)c2cc(N3CCN(C(=O)CCCN4C(=O)S/C(=C\c5ccc(Cl)cc5)C4=O)CC3)c(F)cc2c1=O [3 h],inhibition at 10 µM,IGROV1,< 0%
same,inhibition at 10 µM,LOX IMVI,38.2%
same,inhibition at 10 µM,RXF 393,< 0%
same,inhibition at 10 µM,NCI-H322M,11.8%
same,inhibition at 10 µM,RPMI-8226,< 0%
same,inhibition at 10 µM,MOLT-4,< 0%
same,inhibition at 10 µM,T-47D,2%
same,inhibition at 10 µM,HOP-92,9.7%
same,inhibition at 10 µM,ACHN,0.7%
same,MIC,"E. coli ATCC 25,922",0.04 µM
same,inhibition at 10 µM,MCF7,< 0%
same,inhibition at 10 µM,MALME-3 M,10.9%
same,inhibition at 10 µM,HOP-62,2.9%
same,inhibition at 10 µM,HL-60(TB),< 0%
same,inhibition at 10 µM,NCI-H522,18.3%
same,inhibition at 10 µM,MDA-MB-468,< 0%
same,inhibition at 10 µM,SN12C,0.4%
same,inhibition at 10 µM,SNB-75,15.5%
same,inhibition at 10 µM,HS 578T,< 0%
same,inhibition at 10 µM,TK-10,1.1%
same,inhibition at 10 µM,UACC-62,6.2%
same,melting point,,273 °C
same,MIC,[1],> 20 µM
same,inhibition at 10 µM,PC-3,< 0%
same,inhibition at 10 µM,OVCAR-8,5.3%
same,inhibition at 10 µM,NCI-H23,5.3%
same,inhibition at 10 µM,BT-549,3.8%
same,inhibition at 10 µM,SK-MEL-5,1.1%
same,inhibition at 10 µM,SK-MEL-2,7.3%
same,inhibition at 10 µM,UACC-257,5.1%
same,inhibition at 10 µM,NCI-H460,0%
same,inhibition at 10 µM,HCT-116,1.8%
Cc1ccc(/C=C2\SC(=O)N(CCCC(=O)N3CCN(c4cc5c(cc4F)c(=O)c(C(=O)O)cn5C4CC4)CC3)C2=O)cc1 [3c],inhibition at 10 µM,IGROV1,3.2%
same,inhibition at 10 µM,LOX IMVI,3.5%
same,inhibition at 10 µM,RXF 393,7.2%
same,inhibition at 10 µM,NCI-H322M,< 0%
same,inhibition at 10 µM,MOLT-4,< 0%
same,inhibition at 10 µM,T-47D,< 0%
same,inhibition at 10 µM,HOP-92,< 0%
same,inhibition at 10 µM,ACHN,2.3%
same,MIC,"E. coli ATCC 25,922",0.48 µM
same,inhibition at 10 µM,MCF7,< 0%
same,inhibition at 10 µM,MALME-3 M,< 0%
same,inhibition at 10 µM,HOP-62,< 0%
same,inhibition at 10 µM,HL-60(TB),6.2%
same,inhibition at 10 µM,NCI-H522,1.7%
same,inhibition at 10 µM,MDA-MB-468,< 0%
same,inhibition at 10 µM,SN12C,< 0%
same,inhibition at 10 µM,HS 578T,< 0%
same,inhibition at 10 µM,TK-10,< 0%
same,inhibition at 10 µM,UACC-62,4.2%
same,melting point,,233 to 234 °C
same,MIC,[1],> 20 µM
same,inhibition at 10 µM,PC-3,1.1%
same,inhibition at 10 µM,OVCAR-8,< 0%
same,inhibition at 10 µM,NCI-H23,1.8%
same,inhibition at 10 µM,SK-MEL-5,3.8%
same,inhibition at 10 µM,SK-MEL-2,< 0%
same,inhibition at 10 µM,UACC-257,< 0%
same,inhibition at 10 µM,NCI-H460,< 0%
same,inhibition at 10 µM,HCT-116,< 0%
O=C(O)c1cn(C2CC2)c2cc(N3CCN(C(=O)CCCN4C(=O)S/C(=C\c5ccc(F)cc5)C4=O)CC3)c(F)cc2c1=O [3i],inhibition at 10 µM,IGROV1,1.3%
same,inhibition at 10 µM,LOX IMVI,51.3%
same,Growth Inhibition (%),LOX IMVI,51.3%
same,inhibition at 10 µM,RXF 393,< 0%
same,inhibition at 10 µM,NCI-H322M,11.5%
same,inhibition at 10 µM,RPMI-8226,< 0%
same,inhibition at 10 µM,MOLT-4,< 0%
same,inhibition at 10 µM,T-47D,5%
same,inhibition at 10 µM,HOP-92,5.7%
same,inhibition at 10 µM,ACHN,4.6%
same,MIC,"E. coli ATCC 25,922",0.54 µM
same,inhibition at 10 µM,MCF7,1.3%
same,viability at 0.4 µM,[2]; A498,95.7%
same,viability at 1.6 µM,[2]; A498,83.5%
same,viability at 25 µM,[2]; A498,65%
same,viability at 100 µM,[2]; A498,52.3%
same,IC50,"[2]; A498, read-out: In vitro cytotoxicity (IC50) A498 cell line (µM ± SEM)",147 ± 8.3 µM
same,inhibition at 10 µM,MALME-3 M,14.8%
same,inhibition at 10 µM,HOP-62,2.9%
same,inhibition at 10 µM,HL-60(TB),< 0%
same,inhibition at 10 µM,NCI-H522,22.9%
same,inhibition at 10 µM,MDA-MB-468,7.6%
same,inhibition at 10 µM,SN12C,2.2%
same,inhibition at 10 µM,SNB-75,16.5%
same,inhibition at 10 µM,HS 578T,3%
same,inhibition at 10 µM,TK-10,4.7%
same,inhibition at 10 µM,UACC-62,19.3%
same,"Minimum inhibitory concentrations (MIC, µM) P. aeruginosa ATCC 27,853",[1],did not show considerable anti-bacterial activity
same,MIC,[1],> 20 µM
same,inhibition at 10 µM,PC-3,< 0%
same,inhibition at 10 µM,OVCAR-8,6.8%
same,inhibition at 10 µM,NCI-H23,6.5%
same,inhibition at 10 µM,BT-549,8.6%
same,inhibition at 10 µM,SK-MEL-5,5.5%
same,inhibition at 10 µM,SK-MEL-2,< 0%
same,inhibition at 10 µM,UACC-257,12.3%
same,inhibition at 10 µM,NCI-H460,< 0%
same,viability at 0.4 µM,human melanoma LOX IMVI,74.9%
same,viability at 1.6 µM,human melanoma LOX IMVI,67.8%
same,viability at 25 µM,human melanoma LOX IMVI,51.5%
same,viability at 100 µM,human melanoma LOX IMVI,41.2%
same,IC50,human melanoma LOX IMVI; read-out: In vitro cytotoxicity (IC50) LOX IMVI (µM ± SEM),25.4 ± 1.43 µM
same,inhibition at 10 µM,HCT-116,4.5%
